The source of these data is patent US10105357B2, “Indication of antibiotic drugs for preparation of cancer inhibition pharmaceutical composition” (LAUNX BIOMEDICAL CO., LTD., priority 2014, dated 2018).

As a reminder, the viability is a read-out of living cells in per cent, often relative to untreated cells.

SMILES strings stand for the structures. Where two headings read alike, the source gives them in different places. Positions of bridges follow the written chain, without caps; N, C: chain ends. Non-standard residues stand in square brackets, D forms with d. Residues, ends and D or L forms follow the SMILES beside them. *: point of attachment. Ileψ(thiazoline)Cys = CC[C@H](C)[C@H](N)C1=N[C@H](C(=O)*)CS1; dOrn = NCCC[C@@H](N)C(=O)O

Common to all, as to type: cell-based, human
For experiment [1], the system named is cancer cell lines. Nature of the experiment: Cell viability analysis (WST-1) on cancer cell lines. Conditions: drug 10 μM, 72 hours, WST-1; Table 3.
In experiment [2] the test system is HI650 (Lung Adenocarcinoma). Nature of the experiment: Cell viability analysis, lung cancer HI650. The conditions noted are these: Homo sapiens, NCI-H1650, 72 h.
In experiment [3] the test system is A549 (Lung Adenocarcinoma). Nature of the experiment: Cell viability analysis, lung cancer A549. The conditions noted are these: Homo sapiens, A549, 72 h.
Experiment [4] has as its system AGS (Gastric Adenocarcinoma). Nature of the experiment: Cell viability analysis, gastric cancer AGS. The conditions noted are these: Homo sapiens, 72 h.
Experiment [5] deals with MKN-45 (Gastric Adenocarcinoma). Nature of the experiment: Cell viability analysis, gastric cancer MKN-45. Conditions: Homo sapiens, MKN-45, 72 h.
The subject of experiment [6] is HepG2 (Hepatocellular Carcinoma). Nature of the experiment: Cell viability analysis, hepatic cancer HepG2. Conditions: Homo sapiens, HepG2, 72 h.
In experiment [7] the test system is LoVo (Colorectal Adenocarcinoma). Nature of the experiment: Cell viability analysis, colon cancer LoVo. The conditions noted are these: Homo sapiens, LoVo, 72 h, read-out: cell viability (survival rate), LoVo, drug 10 μM, 72 hours, WST-1, OD450 nm. For orientation: Formazan colour is commonly taken as a measure of viable cells.
For experiment [8], the system named is A375 (Amelanotic Melanoma). The experiment in a line: Cell viability analysis, skin cancer A375. The conditions noted are these: Homo sapiens, A-375, 72 h.
For experiment [9], the system named is HeLa (Cervix Adenocarcinoma). The experiment in a line: Cell viability analysis, cervical cancer HeLa. Conditions: Homo sapiens, HeLa, 72 h.
In experiment [10] the test system is PC3 (p53−) (Prostate Adenocarcinoma). Nature of the experiment: Cell viability analysis, prostate cancer PC3. Conditions: Homo sapiens, 72 h.
In experiment [11] the test system is TSGH-8301 (Urinary Bladder Carcinoma). The experiment in a line: Cell viability analysis, bladder cancer TSGH-8301. The conditions noted are these: Homo sapiens, 72 h.
The test system of experiment [12] is MCF7 (Mammary Gland, Adenocarcinoma). The experiment in a line: Cell viability analysis, breast cancer MCF7. The conditions noted are these: Homo sapiens, MCF7, 72 h.
Experiment [13] relates to HL-60 (Acute Promyelocytic Leukemia). Nature of the experiment: Cell viability analysis, leukemia HL-60. Conditions: Homo sapiens, HL-60, 72 h.
The mark [14] stands for this setting: read-out: cell viability (survival rate), H1650, drug 10 μM, 72 hours, WST-1, OD450 nm.
Where [15] appears, read: read-out: cell viability (survival rate), A549, drug 10 μM, 72 hours, WST-1, OD450 nm.
[16] abbreviates: read-out: cell viability (survival rate), AGS, drug 10 μM, 72 hours, WST-1, OD450 nm.
[17] abbreviates: read-out: cell viability (survival rate), MKN-45, drug 10 μM, 72 hours, WST-1, OD450 nm.
The mark [18] stands for this setting: read-out: cell viability (survival rate), HepG2, drug 10 μM, 72 hours, WST-1, OD450 nm.
The mark [19] stands for this setting: read-out: cell viability (survival rate), A375, drug 10 μM, 72 hours, WST-1, OD450 nm.
[20] abbreviates: read-out: cell viability (survival rate), HeLa, drug 10 μM, 72 hours, WST-1, OD450 nm.
[21] abbreviates: read-out: cell viability (survival rate), PC3, drug 10 μM, 72 hours, WST-1, OD450 nm.
Where [22] appears, read: read-out: cell viability (survival rate), TSGH, drug 10 μM, 72 hours, WST-1, OD450 nm.
The mark [23] stands for this setting: read-out: cell viability (survival rate), MCF7, drug 10 μM, 72 hours, WST-1, OD450 nm.
[24] abbreviates: read-out: cell viability (survival rate), HL-60, drug 10 μM, 72 hours, WST-1, OD450 nm.

As for `C[C@@H]1CC[C@H]2[C@@H](C)C(=O)O[C@@H]3O[C@@]4(C)CC[C@@H]1[C@]32OO4` [Artemisinin], the “inhibition effect on different cancer cell lines” value in [1] is given as “significant inhibition effect”. The viability at 10 µM amounted to 106% in [2] (setting [14]); 98.7% in experiment [3] (setting [15]); 87.7% in experiment [4] (setting [16]); 117% in experiment [5] (setting [17]); 116% in experiment [6] (setting [18]); 104% in experiment [7]. In addition, the viability at 10 µM in experiment [8] (setting [19]) stood at 88.9%; in experiment [9] (setting [20]), 120%; in experiment [10] (setting [21]), 92.5%; in [11] (setting [22]), 63.6%; in experiment [12] (setting [23]), 151%; in [13] (setting [24]), 146%.
On to `CN1CCC(=C2c3ccccc3CCc3cccnc32)CC1` [Azatadine dimaleate], for which, in experiment [1], the “inhibition effect on different cancer cell lines” value is reported as “significant inhibition effect”. In addition, the viability at 10 µM was 48.5% in [2] (drug 10 μM, 72 hours, WST-1, OD450 nm, read-out: cell viability (survival rate), H1650); 123% in experiment [3] (drug 10 μM, 72 hours, WST-1, OD450 nm, read-out: cell viability (survival rate), A549); 67.1% in [4] (drug 10 μM, 72 hours, WST-1, OD450 nm, read-out: cell viability (survival rate), AGS); 83.4% in experiment [5] (drug 10 μM, 72 hours, WST-1, OD450 nm, read-out: cell viability (survival rate), MKN-45); 84.5% in experiment [6] (drug 10 μM, 72 hours, WST-1, OD450 nm, read-out: cell viability (survival rate), HepG2); 95.7% in experiment [7]. The viability at 10 µM in experiment [8] (drug 10 μM, 72 hours, WST-1, OD450 nm, read-out: cell viability (survival rate), A375) was found to be 40.7%; in [9] (drug 10 μM, 72 hours, WST-1, OD450 nm, read-out: cell viability (survival rate), HeLa) it was 72.2%; in experiment [10] (drug 10 μM, 72 hours, WST-1, OD450 nm, read-out: cell viability (survival rate), PC3), 104%; in experiment [11] (drug 10 μM, 72 hours, WST-1, OD450 nm, read-out: cell viability (survival rate), TSGH), 78.5%; in experiment [12] (drug 10 μM, 72 hours, WST-1, OD450 nm, read-out: cell viability (survival rate), MCF7), 79.7%; in experiment [13] (drug 10 μM, 72 hours, WST-1, OD450 nm, read-out: cell viability (survival rate), HL-60), 113%.
For `C[C@H]1[C@H](NC(=O)/C(=N\OC(C)(C)C(=O)O)c2csc(N)n2)C(=O)N1S(=O)(=O)O` [Aztreonam (Azactam, Cayston), Aztreonam], in experiment [1], the “inhibition effect on different cancer cell lines” value was “significant inhibition effect”. In addition, the viability at 10 µM came out at 48.6% in experiment [2] (setting [14]); 56.9% in [3] (setting [15]); 40.9% in experiment [4] (setting [16]); 60.5% in [5] (setting [17]); 111% in experiment [6] (setting [18]); 76.3% in experiment [7]. Further, the viability at 10 µM in experiment [8] (setting [19]) is 88.6%; in experiment [9] (setting [20]), 87.2%; in experiment [10] (setting [21]), 55.2%; in experiment [11] (setting [22]), 52.3%; in experiment [12] (setting [23]), 68.6%; in [13] (setting [24]), 113%.
As to `CC[C@H](C)[C@H](N)C1=N[C@H](C(=O)N[C@@H](CC(C)C)C(=O)N[C@H](CCC(=O)O)C(=O)N[C@H](C(=O)N[C@H]2CCCCNC(=O)[C@H](CC(N)=O)NC(=O)[C@@H](CC(=O)O)NC(=O)[C@H](Cc3cnc[nH]3)NC(=O)[C@@H](Cc3ccccc3)NC(=O)[C@H]([C@@H](C)CC)NC(=O)[C@@H](CCCN)NC2=O)[C@@H](C)CC)CS1` [Bacitracin] ({Ileψ(thiazoline)Cys}-L[dE]IK[dOrn]I[dF]H[dD]N; lactam 4-C), in [1], the “inhibition effect on different cancer cell lines” value was “significant inhibition effect”. The viability at 10 µM in experiment [2] (setting [14]) is 65.4%; in experiment [3] (setting [15]), 51.4%; in experiment [4] (setting [16]) it was 61.4%; in [5] (setting [17]), 46.9%; in experiment [6] (setting [18]) it was 86.4%; in experiment [7], 69.9%. The viability at 10 µM worked out at 54.7% in experiment [8] (setting [19]); 68.4% in experiment [9] (setting [20]); 70% in experiment [10] (setting [21]); 68.3% in experiment [11] (setting [22]); 41.4% in experiment [12] (setting [23]); 85.9% in experiment [13] (setting [24]).
Regarding `O=C(O)CCNC(=O)c1ccccc1` [Betamipron], the “inhibition effect on different cancer cell lines” value in experiment [1] is “significant inhibition effect”. The viability at 10 µM in experiment [2] (setting [14]) was 72.8%; in [3] (setting [15]) it was 72.3%; in [4] (setting [16]) it was 75.2%; in experiment [5] (setting [17]) it was 88.2%; in experiment [6] (setting [18]), 90.9%; in experiment [7], 93.5%. The viability at 10 µM worked out at 85.8% in experiment [8] (setting [19]); 75.9% in experiment [9] (setting [20]); 92.6% in experiment [10] (setting [21]); 85.4% in [11] (setting [22]); 118% in experiment [12] (setting [23]); 96.2% in experiment [13] (setting [24]).
Regarding `C[C@@H](O)[C@H]1C(=O)N2C(C(=O)[O-])=C(SC3Cn4cnc[n+]4C3)[C@H](C)[C@H]12` (stereo partly drawn) [Biapenem], the “inhibition effect on different cancer cell lines” value in experiment [1] is listed as “significant inhibition effect”. In addition, the viability at 10 µM in [2] (setting [14]) stood at 42.2%; in experiment [3] (setting [15]), 90.1%; in experiment [4] (setting [16]) it was 75.1%; in [5] (setting [17]) it was 81.5%; in experiment [6] (setting [18]), 66.4%; in [7] it was 88.7%. In addition, the viability at 10 µM in experiment [8] (setting [19]) is 60.4%; in experiment [9] (setting [20]), 54%; in experiment [10] (setting [21]), 80.3%; in experiment [11] (setting [22]) it was 117%; in experiment [12] (setting [23]) it was 136%; in experiment [13] (setting [24]), 95.5%.
With `c1ccc(-c2ccc(C(c3ccccc3)n3ccnc3)cc2)cc1` (stereo not drawn) [Bifonazole], the “inhibition effect on different cancer cell lines” value in experiment [1] was “significant inhibition effect”. Further, the viability at 10 µM in experiment [2] (setting [14]) amounted to 55.9%; in experiment [3] (setting [15]), 79.3%; in experiment [4] (setting [16]), 64.3%; in experiment [5] (setting [17]), 50.5%; in [6] (setting [18]), 109%; in experiment [7], 81.1%. Besides, the viability at 10 µM in experiment [8] (setting [19]) is 94.9%; in [9] (setting [20]), 67.2%; in experiment [10] (setting [21]) it was 78.2%; in experiment [11] (setting [22]) it was 82.1%; in experiment [12] (setting [23]), 73.3%; in experiment [13] (setting [24]) it was 119%.
In the case of `Clc1ccc(CCC(Cn2ccnc2)Sc2c(Cl)cccc2Cl)cc1` (stereo not drawn) [Butoconazole nitrate], the “inhibition effect on different cancer cell lines” value in [1] is on record as “significant inhibition effect”. Also, the viability at 10 µM was 78.2% in [2] (setting [14]); 89.6% in [3] (setting [15]); 78.7% in experiment [4] (setting [16]); 48.7% in [5] (setting [17]); 114% in experiment [6] (setting [18]); 112% in [7]. The viability at 10 µM came out at 102% in [8] (setting [19]); 131% in [9] (setting [20]); 57.1% in experiment [10] (setting [21]); 86% in experiment [11] (setting [22]); 72.9% in [12] (setting [23]); 41.3% in experiment [13] (setting [24]).
For `CC1(C)S[C@@H]2[C@H](NC(=O)C(C(=O)O)c3ccccc3)C(=O)N2[C@H]1C(=O)O` (stereo partly drawn) [Carbenicillin disodium], the “inhibition effect on different cancer cell lines” value in [1] is “significant inhibition effect”. In addition, the viability at 10 µM in experiment [2] (setting [14]) came out at 76.2%; in experiment [3] (setting [15]), 53.5%; in experiment [4] (setting [16]), 62.9%; in [5] (setting [17]), 84.3%; in [6] (setting [18]) it was 88.9%; in experiment [7], 86.2%. Further, the viability at 10 µM in experiment [8] (setting [19]) turned out to be 70.2%; in [9] (setting [20]), 77.8%; in [10] (setting [21]) it was 84.4%; in experiment [11] (setting [22]), 84.3%; in experiment [12] (setting [23]) it was 59%; in experiment [13] (setting [24]), 114%.
